Test results: the NIST ThermoML archive (doi:10.1016/j.jct.2005.12.006)
“And” between values parts separate entries of the source, which are not always exact repeats. Equal entries are not always repeated. ± gives the expanded uncertainty stated by the source.

Experiment: excess molar enthalpy (molar enthalpy of mixing); xn = mol fraction of the nth substance listed
Settings: 298.15 K, 101 kPa, Liquid, Flow calorimetry

CCCCCC [hexane] + CCCCO
Settings	excess molar enthalpy [kcal/mol]
x2 = 0.2065	0.128 ± 0.00406
x2 = 0.2516	0.129 ± 0.00406
x2 = 0.405	0.133 ± 0.00406
x2 = 0.5028	0.12 ± 0.00382
x2 = 0.6056	0.105 ± 0.00335
x2 = 0.7505	0.0658 ± 0.00208
x2 = 0.8055	0.0521 ± 0.00165

CCCCN(CCCC)CCCC [tributylamine] + CCCCCC
Settings	excess molar enthalpy [kcal/mol]
x1 = 0.05	-0.00112 ± 0.000502
x1 = 0.0995	-0.00182 ± 0.000502
x1 = 0.1495	-0.0022 ± 0.000502
x1 = 0.1997	-0.0022 ± 0.000502
x1 = 0.2498	-0.0021 ± 0.000502
x1 = 0.2992	-0.00189 ± 0.000502
x1 = 0.3498	-0.00167 ± 0.000502
x1 = 0.3991	-0.00143 ± 0.000502
x1 = 0.449	-0.00122 ± 0.000502
x1 = 0.4993	-0.00103 ± 0.000502
x1 = 0.5488	-0.000837 ± 0.000502
x1 = 0.599	-0.000645 ± 0.000502
x1 = 0.6492	-0.000502 ± 0.000502
x1 = 0.6989	-0.000382 ± 0.000502
x1 = 0.7495	-0.000311 ± 0.000502
x1 = 0.7991	-0.000239 ± 0.000502
x1 = 0.8497	-0.000191 ± 0.000502
x1 = 0.9	-0.000143 ± 0.000502
x1 = 0.9501	-9.56e-05 ± 0.000502

CCCCN(CCCC)CCCC [tributylamine] + CCCCO
Settings	excess molar enthalpy [kcal/mol]
x2 = 0.0505	0.00913 ± 0.000526
x2 = 0.1006	0.0104 ± 0.000526
x2 = 0.1507	0.00648 ± 0.000526
x2 = 0.2009	0.00115 ± 0.000502
x2 = 0.2511	-0.00574 ± 0.000526
x2 = 0.3013	-0.0113 ± 0.00055
x2 = 0.3519	-0.0181 ± 0.000621
x2 = 0.4018	-0.024 ± 0.000789
x2 = 0.4514	-0.0301 ± 0.00098
x2 = 0.5014	-0.0352 ± 0.00115
x2 = 0.5513	-0.0402 ± 0.00129
x2 = 0.6014	-0.0439 ± 0.00141
x2 = 0.6512	-0.0471 ± 0.00151
x2 = 0.7011	-0.0489 ± 0.00155
x2 = 0.7517	-0.0498 ± 0.00158
x2 = 0.8013	-0.0491 ± 0.00155
x2 = 0.8514	-0.0465 ± 0.00148
x2 = 0.9004	-0.0403 ± 0.00129
x2 = 0.9503	-0.0274 ± 0.000908
x2 = 0.9698	-0.0182 ± 0.000645
x2 = 0.9853	-0.0055 ± 0.00055

CCCCCCCCN(CCCCCCCC)CCCCCCCC [trioctylamine] + CCCCCC
Settings	excess molar enthalpy
x1 = 0.0312	-0.00115 kcal/mol and -0.00117 kcal/mol and -0.0012 kcal/mol
x1 = 0.0625	-0.0021 kcal/mol and -0.00217 kcal/mol and -0.00208 kcal/mol
x1 = 0.0938	-0.00249 ± 0.000502 kcal/mol
x1 = 0.125	-0.00294 kcal/mol and -0.00277 kcal/mol
x1 = 0.1875	-0.00301 kcal/mol and -0.00308 kcal/mol
x1 = 0.25	-0.00263 kcal/mol and -0.00253 kcal/mol
x1 = 0.3125	-0.00213 ± 0.000502 kcal/mol
x1 = 0.375	-0.00179 ± 0.000502 kcal/mol
x1 = 0.4375	-0.00155 ± 0.000502 kcal/mol
x1 = 0.4999	-0.00127 ± 0.000502 kcal/mol
x1 = 0.5625	-0.00098 ± 0.000502 kcal/mol
x1 = 0.6249	-0.000669 ± 0.000502 kcal/mol
x1 = 0.625	-0.000693 ± 0.000502 kcal/mol
x1 = 0.6873	-0.000526 ± 0.000502 kcal/mol
x1 = 0.75	-0.000406 ± 0.000502 kcal/mol
x1 = 0.8124	-0.000215 kcal/mol and -0.000167 kcal/mol
x1 = 0.8749	-9.56e-05 ± 0.000502 kcal/mol
x1 = 0.875	-2.39e-05 kcal/mol
x1 = 0.9374	-4.78e-05 kcal/mol

CCCCCCCCN(CCCCCCCC)CCCCCCCC [trioctylamine] + CCCCO
Settings	excess molar enthalpy
x2 = 0.0623	0.0383 ± 0.00124 kcal/mol
x2 = 0.1246	0.053 ± 0.00167 kcal/mol
x2 = 0.1877	0.0618 ± 0.00196 kcal/mol
x2 = 0.2503	0.0668 ± 0.0021 kcal/mol
x2 = 0.3122	0.0689 ± 0.00217 kcal/mol
x2 = 0.3747	0.0696 ± 0.0022 kcal/mol
x2 = 0.4373	0.0682 ± 0.00215 kcal/mol
x2 = 0.5	0.0651 ± 0.00206 kcal/mol
x2 = 0.5625	0.0615 ± 0.00194 kcal/mol
x2 = 0.6251	0.0558 ± 0.00177 kcal/mol
x2 = 0.6876	0.0467 ± 0.00148 kcal/mol
x2 = 0.7501	0.0353 ± 0.00115 kcal/mol
x2 = 0.8125	0.0241 ± 0.000789 kcal/mol
x2 = 0.875	0.0152 kcal/mol and 0.015 kcal/mol
x2 = 0.9375	0.00612 ± 0.000526 kcal/mol
